Results on 18 compounds are retold here after patent US5670492A, “DC-89 derivatives” (priority 1994, dated 1997).

The conditions of data set [1]: when used as injections; cited from earlier work.
Data set [2] relates to various bacteria. Particulars: cited from earlier work.
Data set [3] has as its system melanoma B-16. Particulars: cited from earlier work.
Data set [4] deals with HeLaS3 cells. The data set can be described thus: Growth Inhibitory Effect Against HeLaS3 cells. Format: cell-based. The note with it: Homo sapiens. The protocol:
HeLaS3 cells were suspended in MEM medium containing 10% calf serum and 2 mM glutamine to a concentration of 2.67×10^4 cells/mi. The cell suspension thus prepared was put into wells of a 24-well culture plate in an amount of 0.75 ml per well. After the cells were incubated in a CO2 incubator overnight at 37° C., Compound (I) which had been appropriately diluted with a culture medium was added to each well in an amount of 0.25 ml.
The cells were further incubated in the CO2 incubator for 72 hours, and the culture supernatant was removed. Then, the cells were dispersed in a solution of trypsin and EDTA and recovered. The number of cells was counted using a cell counter. The concentration (IC50) of Compound (I) at which the growth of the cells is inhibited by 50% was calculated by comparing the number of untreated cells with the number of the cells treated with Compound (I) at known concentrations.

In data set [5] the test system is Sarcoma 180 tumor. The data set can be described thus: Therapeutic Effect Against Sarcoma 180 Tumor. Format: in vivo, male ddY-strain mice. The note with it: Mus musculus, Sarcoma-180, iv, 168 h, read-out: T/C. The protocol:
Five male ddY-strain mice each weighing 18-20 g were used for each group as test animals, and 5×10^5 Sarcoma 180 tumor cells were implanted at the axilla subcutaneously. One day after the implantation, 0.2 ml of a physiological saline containing Compound (I) at the concentration shown in Table 2 was intravenously administered to each mouse. T/C [T: average tumor volume (mm^3) of the group treated with the test compound, C: average tumor volume (mm^3) of the control group (to which […] of a physiological saline was intravenously administered)] was determined seven days after the implantation.

The test system of data set [6] is ddY-strain male mice. Kind of data set: Acute Toxicity. The note with it: i.v., mortality at 14 days after administration. The format is in vivo. As to the method: Compound (I) was intravenously administered to ddY-strain male mice each weighing 20±1 g. MLD (minimum lethal dose) was determined by observing the mortality at 14 days after administration.
A short description of data set [7]: Test for Solubility in Water. Format: physicochemical. Particulars: room temperature. The protocol: A sample tube was charged with 0.7 mg of Compound (I), and 30 μl of water were added thereto at room temperature. The mixture was stirred, and the solubility in water was measured. When the compound was not dissolved, 30 μl of water was added thereto successively, and the mixture was stirred. The solubility in water was measured when the compound was dissolved.

Where [8] appears, read: HeLa S3, 72 hours, read-out: IC50.

Like-named read-outs stand apart in the source and are kept apart here.

Turning to `COC(=O)c1c(C)[nH]c2c1C13CC1CN(C(=O)/C=C/c1ccc(OC)cc1)C3=CC2=O` (stereo not drawn) [(B)], the water-solubility result in data set [1] was “lack satisfactory water-solubility”.
Consider `COC(=O)c1cc2c([nH]1)C(=O)C=C1N(C(=O)c3cc4cc(OC)c(OC)c(OC)c4[nH]3)CC3CC123` (stereo not drawn) [DC113], for which the antibacterial activity result in data set [2] was “antibacterial activity against various bacteria”. Besides, in data set [3], the antitumor activity result is listed as “anti-tumor activity against melanoma B-16”.
In data set [4] (HeLa S3, 72 h), `COC(=O)c1c(C)[nH]c2c(OC(=O)c3ccc(CN4CCN(C)CC4)cc3)cc3c(c12)C(CBr)CN3C(=O)/C=C/c1ccc(OC)c(N(C)C)c1` (stereo not drawn) [Compound 66] registered a 50% inhibitory concentration (IC50) of 1.1 nM. Also, in data set [5], the response vs control in vivo at 2 mg/kg is 21%. In addition, in data set [6], the “MLD (minimum lethal dose)” value stood at 2.0 mg/kg. Moreover, in data set [7], the solubility was greater than 20 mg/mL.
As to `COC(=O)c1c(C)[nH]c2c(OC(=O)NN3CCN(C)CC3)cc3c(c12)C(CCl)CN3C(=O)/C=C/c1cnc(OC)nc1` (stereo not drawn) [Compound 69], in data set [4] (HeLa S3, 72 h), the IC50 is 1.4 nM. In data set [5], the response vs control in vivo at 4 mg/kg was 40%. Besides, the “MLD (minimum lethal dose)” value in data set [6] is recorded as 4.0 mg/kg. Further, the solubility in data set [7] is greater than 10 mg/mL.
`COC(=O)c1c(C)[nH]c2c(OC(=O)NN(C)C)cc3c(c12)C(CBr)CN3C(=O)/C=C/c1ccc(OC)c(N(C)C)c1` (stereo not drawn) [Compound 62]: in data set [4] (setting [8]), the IC50 was 0.62 nM. Besides, the response vs control in vivo at 2 mg/kg in data set [5] (2.0 mg/kg, single i.v. one day after s.c. implantation, tumor volume ratio seven days after implantation) amounted to 19%. Moreover, in data set [6], the “MLD (minimum lethal dose)” value is 2.0 mg/kg. The same compound showed a solubility in data set [7] greater than 20 mg/mL.
For `COC(=O)C1(C)NC2=C(C1=O)C13CC1CN(C(=O)c1cc4cc(OC)c(OC)c(OC)c4[nH]1)C3=CC2=O` (stereo not drawn) [DC-88A], in data set [2], the antibacterial activity entry is reported as “antibacterial activity against various bacteria”. Also, in data set [3], the antitumor activity entry is “anti-tumor activity against melanoma B-16”.
Regarding `COC(=O)c1c(C)[nH]c2c(OC(=O)N3CCN(C)CC3)cc3c(c12)C(CBr)CN3C(=O)/C=C/c1ccc(OC)c(N(C)C)c1` (stereo not drawn) [Compound 43], the IC50 in data set [4] (HeLa S3, 72 h) came out at 52 nM. Moreover, the response vs control in vivo at 2 mg/kg in data set [5] turned out to be 13%. The “MLD (minimum lethal dose)” value in data set [6] is 4.0 mg/kg. For the same compound, in data set [7], the solubility was less than 0.5 mg/mL.
`CCN(CC)c1cc(/C=C/C(=O)N2CC(CBr)c3c2cc(OC(=O)N2CCN(C)CC2)c2[nH]c(C)c(C(=O)OC)c32)ccc1OC` (stereo not drawn) [Compound 49] had an IC50 in data set [4] (HeLa S3, 72 h) of 280 nM. In addition, in data set [5], the response vs control in vivo at 8 mg/kg is 20%. Further, the “MLD (minimum lethal dose)” value in data set [6] was greater than 8.0 mg/kg. Besides, the solubility in data set [7] is greater than 20 mg/mL.
`COC(=O)c1c(C)[nH]c2c(OC(=O)N3CCN(C)CC3)cc3c(c12)C(CBr)CN3C(=O)/C=C/c1ccc(OC)nn1` (stereo not drawn) [Compound 14] yielded a 50% inhibitory concentration (IC50) in data set [4] (HeLa S3, 72 h) of 90 nM. Besides, in data set [5], the response vs control in vivo at 1 mg/kg was found to be 31%. In addition, in data set [6], the “MLD (minimum lethal dose)” value amounted to 0.50 mg/kg. The compound further came in with a solubility in data set [7] greater than 20 mg/mL.
Take `COC(=O)C1(C)Nc2c(O)cc3c(c2C1=O)CC(Cl)CN3C(=O)c1cc2cc(OC)c(OC)c(OC)c2[nH]1` (stereo not drawn) [DC-89A1]: the antibacterial activity result in data set [2] is on record as “antibacterial activity against various bacteria”. Moreover, the antitumor activity entry in data set [3] was “antitumor activity against melanoma B-16”.
Consider `COC(=O)c1c(C)[nH]c2c(OC(=O)N3CCN(C)CC3)cc3c(c12)C(CBr)CN3C(=O)/C=C/c1ccc(OC)nc1` (stereo not drawn) [Compound 3], for which the IC50 in data set [4] (HeLa S3, 72 h) is 110 nM. In data set [5], the response vs control in vivo at 1 mg/kg was 36%. In addition, in data set [6], the “MLD (minimum lethal dose)” value is reported as 1.0 mg/kg. In data set [7], the solubility was greater than 20 mg/mL.
`COC(=O)c1c(C)[nH]c2c(OC(C)=O)cc3c(c12)C(CBr)CN3C(=O)/C=C/c1ccc(OC)c(N(C)C)c1` (stereo not drawn) [Compound 45] registered an IC50 in data set [4] (HeLa S3, 72 h) of 0.54 nM. Also, the response vs control in vivo at 1 mg/kg in data set [5] was determined as 20%. Further, the “MLD (minimum lethal dose)” value in data set [6] is 1.0 mg/kg. Moreover, the solubility in data set [7] is greater than 20 mg/mL.
Turning to `COC(=O)c1c(C)[nH]c2c(OC(C)=O)cc3c(c12)C(CCl)CN3C(=O)/C=C/c1ccc(OC)c(N(C)C)c1` (stereo not drawn) [Compound 51], in data set [4] (setting [8]), the concentration for half-maximal inhibition (IC50) stood at 0.46 nM. Also, the response vs control in vivo at 4 mg/kg in data set [5] (4.0 mg/kg, single i.v. one day after s.c. implantation, tumor volume ratio seven days after implantation) was found to be 14%. Besides, the “MLD (minimum lethal dose)” value in data set [6] was 4.0 mg/kg. Besides, in data set [7], the solubility is greater than 10 mg/mL.
For the compound `COC(=O)C1(C)Nc2c(O)cc3c(c2C1=O)C(CCl)CN3C(=O)c1cc2cc(OC)c(OC)c(OC)c2[nH]1` (stereo not drawn) [DC-89A2], the antibacterial activity result in data set [2] is given as “antibacterial activity against various bacteria”. Besides, the antitumor activity entry in data set [3] was “antitumor activity against melanoma B-16”.
Consider `COC(=O)C1(C)Nc2c(O)cc3c(c2C1=O)CC(Br)CN3C(=O)c1cc2cc(OC)c(OC)c(OC)c2[nH]1` (stereo not drawn) [DC-89B1], for which, in data set [2], the antibacterial activity result is “antibacterial activity against various bacteria”. Moreover, the antitumor activity result in data set [3] is “antitumor activity against melanoma B-16”.
`COC(=O)c1c(C)[nH]c2c(OC(=O)NN3CCN(C)CC3)cc3c(c12)C(CBr)CN3C(=O)/C=C/c1ccc(OC)c(N(C)C)c1` (stereo not drawn) [Compound 60] yielded an IC50 in data set [4] (HeLa S3, 72 h) of 0.94 nM. The response vs control in vivo at 4 mg/kg in data set [5] worked out at 15%. Moreover, the “MLD (minimum lethal dose)” value in data set [6] was greater than 8.0 mg/kg. This compound gave a solubility in data set [7] greater than 20 mg/mL.
In the case of `COC(=O)c1c(C)[nH]c2c(OC(=O)N3CCN(C)CC3)cc3c(c12)C(CBr)CN3C(=O)/C=C/c1cnc(OC)nc1` (stereo not drawn) [Compound 8], the midpoint of inhibition in data set [4] (HeLa S3, 72 h), the IC50, lay at 170 nM. For the same compound, the response vs control in vivo at 2 mg/kg in data set [5] came to 26%. Further, in data set [6], the “MLD (minimum lethal dose)” value came out at 4.0 mg/kg. Moreover, the solubility in data set [7] was greater than 20 mg/mL.
Take `COC(=O)C1(C)Nc2c(O)cc3c(c2C1=O)C(CBr)CN3C(=O)c1cc2cc(OC)c(OC)c(OC)c2[nH]1` (stereo not drawn) [DC-89B2]: the antibacterial activity entry in data set [2] is listed as “antibacterial activity against various bacteria”. Moreover, the antitumor activity entry in data set [3] is reported as “antitumor activity against melanoma B-16”.
